# Measured values from PMC4735769 (Cancer Medicine, 2015).
# What was measured:
# [1] = tested on: pediatric preclinical cell models; conditions: read-out: median IC50; cited from earlier work
# pediatric patients = conditions: phase I single-agent pediatric trial; cited from earlier work
# [2] = tested on: pediatric patients with relapsed solid tumors; experiment: phase I dose escalation of oral sorafenib and topotecan: toxicity, DLT, MTD; conditions: osteosarcoma patient with prior doxorubicin 450 mg/m^2, on digoxin and lisinopril; cycle 2
# Description: Intra‐patient dose escalation was not allowed on this study. […] Total daily dose for patients was rounded to the nearest 50 mg tablet size based on patient BSA (a dosing nomogram was used to minimize inter‐patient dosing variability). Patients ingested tablets with clear liquids (2–4 ounces for children <12 and 4 ounces for ≥12 years) and while dispersion in liquid was allowed, all patients swallowed tablets.
# The capsules could not be chewed, crushed, or divided and were swallowed whole. […] Vials were dispensed in light protective bags and kept refrigerated. The reconstituted formulation was drawn up in oral syringes to the prescribed volume and administered to the patient immediately after reconstitution.
# This dose‐escalation study used a standard 3 + 3 design, with up to six patients being enrolled on a DL. Enrollment to subsequent DLs was determined by the number of enrolled patients, the number with DLTs, and the number at risk for DLTs.
# Toxicity was graded according to the Common Terminology Criteria for Adverse Events version 4.0 (http://ctep.cancer.gov). […]
# [3] = sorafenib plasma pharmacokinetics (LC-MS/MS, noncompartmental); type: in vivo, human
# Description: Plasma samples were analyzed by protein precipitation. Calibration curves, linear from 5 to 2500 ng/mL with an R ^2 of >0.99, were generated for each run, with patient sample concentrations back‐calculated from the corresponding regression line.
# (§1) Plasma concentration‐time data for both drugs were analyzed by noncompartmental methods using Phoenix WinNonlin 6.3 (Pharsight Corp., Mountain View, CA).
# [4] = topotecan plasma pharmacokinetics, total and lactone (HPLC fluorescence, noncompartmental); conditions: for T min: total topotecan
# Description: The calibration curve was linear from 0.125 to 50 ng/mL, with the regression meeting acceptable criteria, with patient samples calculated as described above.
# as §1
# [5] = Cycle 1, day 28, 150 mg/m^2 (n = 8), steady state, sorafenib alone
# [6] = Cycle 1, day 28, 200 mg/m^2 (n = 1), steady state, sorafenib alone
# [7] = Cycle 2, day 1, 150 mg/m^2 (n = 6), steady state, with topotecan
# [8] = Cycle 2, day 1, 200 mg/m^2 (n = 1), steady state, with topotecan
compound,measurement,setting,value
CNC(=O)c1cc(Oc2ccc(NC(=O)Nc3ccc(Cl)c(C(F)(F)F)c3)cc2)ccn1 [Sorafenib],IC50,[1],4.3 µM
same,dose-limiting toxicities (DLTs),pediatric patients,rash and hypertension
same,left ventricular ejection fraction on restart of sorafenib,[2],ejection fraction again fell to grade 3
same,C avg,[3]; [5],5400 ± 2600 ng/mL
same,C max,[3]; [5],6800 ± 3500 ng/mL
same,C min,[3]; [5],2900 ± 2500 ng/mL
same,T max,[3]; [5],4.0 ± 3.3 h
same,T min,[3]; [5],4.6 ± 3.4 h
same,C avg,[3]; [6],7600 ng/mL
same,C min,[3]; [6],4900 ng/mL
same,T max,[3]; [6],3 h
same,T min,[3]; [6],8 h
same,C avg,[3]; [7],4500 ± 3800 ng/mL
same,C min,[3]; [7],3100 ± 2800 ng/mL
same,T min,[3]; [7],4.3 ± 2.7 h
same,C avg,[3]; [8],9800 ng/mL
same,C min,[3]; [8],6700 ng/mL
same,T min,[3]; [8],5 h
same,"dose-normalized AUC, exposure to sorafenib with vs without topotecan","[3]; cycle 1 day 28 vs cycle 2 day 1, all dose levels",comparable amounts of exposure
CC[C@@]1(O)C(=O)OCc2c1cc1n(c2=O)Cc2cc3c(CN(C)C)c(O)ccc3nc2-1 [Topotecan],"drug–drug interaction, topotecan PK profiles in presence and absence of sorafenib",[4]; cycle 1 day 1 vs cycle 2 day 1,no apparent drug–drug interaction
same,T min,"[4]; Cycle 1 Day 1 – 1.0 mg/m^2 (n = 3), without sorafenib",4.7 (±1.1) h
same,T min,"[4]; Cycle 2 Day 1 – 1.0 mg/m^2 (n = 3), sorafenib at steady state",9.2 (±3.6) h
